The record followed here is patent US8906904B2, “Alkoxy pyrazoles as soluble guanylate cyclase activators” (Boehringer Ingelheim International GmbH, priority 2012, dated 2014).

The solubility is the dissolved amount per volume that the medium holds. The low end stands for little dissolved substance, the high end for much dissolved substance.

This data set in a line: Assessment of solubility (McIlvaine buffers, 24 h shake, UPLC-UV). The class given is physicochemical. Conditions: kinetic from dmso stock. An outline of the steps:
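Compounds from 10 mM DMSO stocks were shaken for 24 h at room temperature in McIlvaine buffers at pH 2.2, 4.5 and 6.8 (2.5% v/v DMSO final), then filtered. Filtrates were quantified by UPLC-UV at 254 nm against a 50:50 acetonitrile/water reference assumed fully dissolved, as a single determination.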

In brackets after ≈: the same amount, converted by molar mass.

For `COc1c(C(=O)O)cnn1-c1cccc(-c2cccc(C)c2OCc2cc(C#N)c3c(c2)CCN(C2CCOCC2)C3)n1` [Compound 250], the solubility at 24 h reads like this: (pH 2.2, aqueous buffer) 110 µg/mL (≈ 190 µM); (pH 4.5, aqueous buffer) 81 µg/mL (≈ 140 µM); (pH 6.8, aqueous buffer) 86 µg/mL (≈ 148 µM).

`COc1c(C(=O)O)cnn1-c1cccc(-c2cccc(C)c2OCc2ccc3c(c2F)CCN([C@H]2CCOC2)C3)n1` [Compound 251]: the solubility at 24 h is, setting by setting: (pH 2.2, aqueous buffer) 100 µg/mL (≈ 179 µM); (pH 4.5, aqueous buffer) 72 µg/mL (≈ 129 µM); (pH 6.8, aqueous buffer) 77 µg/mL (≈ 138 µM).

As for `COc1c(C(=O)O)cnn1-c1cccc(-c2cccc(C)c2OCc2ccc3c(c2F)CCN([C@@H]2CCOC2)C3)n1` [Compound 252], the solubility at 24 h (pH 2.2, aqueous buffer) came out at 94 µg/mL (≈ 168 µM); the concentration in solution (pH 4.5, aqueous buffer) (solubility at 24 h) came to 73 µg/mL (≈ 131 µM); the concentration in solution (pH 6.8, aqueous buffer) (solubility at 24 h) came to 62 µg/mL (≈ 111 µM).

Turning to `COc1c(C(=O)O)cnn1-c1cccc(-c2cccc(C)c2OCc2cc(F)c3c(c2)CCN([C@@H]2CCOC2)C3)n1` [Compound 253], the solubility at 24 h came to 100 µg/mL (≈ 179 µM) (pH 2.2, aqueous buffer); 75 µg/mL (≈ 134 µM) (pH 4.5, aqueous buffer); 81 µg/mL (≈ 145 µM) (pH 6.8, aqueous buffer).

Regarding `COc1c(C(=O)O)cnn1-c1cccc(-c2cccc(C)c2OCc2cc(F)c3c(c2)CCN([C@H]2CCOC2)C3)n1` [Compound 254], the solubility at 24 h reads like this: (pH 2.2, aqueous buffer) 100 µg/mL (≈ 179 µM); (pH 4.5, aqueous buffer) 64 µg/mL (≈ 115 µM); (pH 6.8, aqueous buffer) 80 µg/mL (≈ 143 µM).
